# According to ChEMBL document CHEMBL1141153, “A molecular target for suppression of the evolution of antibiotic resistance: inhibition of the Escherichia coli RecA protein by N(6)-(1-naphthyl)-ADP” (J Med Chem, 2005):
# Target: T1, Protein RecA (Escherichia coli K-12) (UniProt P0A7G6)
# T1 sequence (whole entry): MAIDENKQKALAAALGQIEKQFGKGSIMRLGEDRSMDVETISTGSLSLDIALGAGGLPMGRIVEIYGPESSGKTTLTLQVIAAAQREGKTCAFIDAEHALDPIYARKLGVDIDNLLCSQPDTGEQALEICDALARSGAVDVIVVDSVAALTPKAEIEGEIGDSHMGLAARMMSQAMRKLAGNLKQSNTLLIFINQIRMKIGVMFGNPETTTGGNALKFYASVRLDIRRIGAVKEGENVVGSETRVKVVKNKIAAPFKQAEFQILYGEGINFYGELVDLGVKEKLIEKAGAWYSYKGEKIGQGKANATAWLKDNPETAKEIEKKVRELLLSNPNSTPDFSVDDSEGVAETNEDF
# Experiment: In vitro apparent inhibition constant against Escherichia coli RecA protein
smiles,measurement,value
O=P(O)(O)OP(=O)(O)OC[C@H]1O[C@@H](n2cnc3c(Nc4cccc5ccccc45)ncnc32)[C@H](O)[C@@H]1O,Kic,46 µM
